Key:
[1] = biological target: T1, AChE (source Electric eel) (Electrophorus electricus, UniProt O42275); assay: biochemical
T1 construct: from tissue
Procedure: (§1) The cholinesterase inhibitory potentials of our synthesized compounds were evaluated against cholinesterase enzymes (AChE/BChE). The AChE (source Electric eel) and BChE (source equine serum) were used in the study following previously published Ellman's assay. The assay basic principle involves the hydrolytic breakdown of acetylthiocholine iodide (ATChI) by AChE and butyryl thiocholine iodide (BTChI) by BChE enzymes, leading to the formation of an intermediate compound which is subsequently complexed with 5,5-dithio bis nitrobenzoic acid (DTNB) to form a UV-detectable compound. The yellowish color product indicates the hydrolysis of ATChI and BTChI substrates by respective enzymes, which were analyzed at 412 nm using a UV-visible spectrophotometer. […] A test sample of 1000 µl was taken in a cuvette, to which enzyme solution (50 µl) and DTNB reagent of 50 µL were added. The AChE (0.03 U/ml) and BChE (0.01 U/ml) solutions were prepared in 0.1 M phosphate buffer having pH 8.0. The ATChI and BTChI substrate solutions (0.0005 M) and 0.0002273 M solution of DTNB were prepared using distilled water and stored at 8°C before further use. For 15 minutes, the solution mixture was incubated at 30 °C, after which a solution of the substrate (50 µl) was added and then subjected to spectroscopic analysis. Using a double beam spectrophotometer, the sample absorbance was measured for 4 minutes at 412 nm beside the time of reaction. […] All values were taken in triplicate under the same conditions.
(§2) Enzymatic activity percentage=V/Vmaxx100
(§3) V is the reaction rate in the inhibitor's presence, whereas Vmax is the reaction rate in the absence of the inhibitor.

[2] = biological target: T2, BChE (source equine serum) (Equus caballus, UniProt P81908); assay: biochemical
T2 construct: from tissue; host or cells: equine serum
T2 sequence (P81908 whole entry): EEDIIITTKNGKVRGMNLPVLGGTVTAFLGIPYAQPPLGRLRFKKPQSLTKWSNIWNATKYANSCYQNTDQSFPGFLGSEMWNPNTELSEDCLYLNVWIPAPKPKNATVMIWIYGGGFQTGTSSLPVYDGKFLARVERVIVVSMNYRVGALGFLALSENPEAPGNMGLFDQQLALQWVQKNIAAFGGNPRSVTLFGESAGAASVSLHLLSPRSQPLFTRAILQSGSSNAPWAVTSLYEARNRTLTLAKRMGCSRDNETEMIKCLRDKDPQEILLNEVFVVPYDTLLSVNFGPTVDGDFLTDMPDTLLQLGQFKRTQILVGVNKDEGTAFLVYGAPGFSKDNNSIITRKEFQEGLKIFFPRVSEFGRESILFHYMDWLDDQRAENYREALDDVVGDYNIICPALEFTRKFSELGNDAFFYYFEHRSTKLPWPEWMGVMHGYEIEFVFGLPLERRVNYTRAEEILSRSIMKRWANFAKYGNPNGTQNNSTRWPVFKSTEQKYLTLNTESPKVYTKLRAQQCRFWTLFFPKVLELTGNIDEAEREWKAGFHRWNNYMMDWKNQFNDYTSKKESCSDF
Procedure: as §1, §2, §3

DPPH antioxidant assay = format: physicochemical; settings: for % Inhibition (DPPH free radicals): mean ± SEM
Procedure: To evaluate the in-vitro antioxidant potential of the synthesized derivatives, a previously reported 1,1 Diphenyl, 2 Picrylhydrazyl (DPPH) assay was utilized. The DPPH solution was prepared by dissolving twenty-four mg DPPH in methanol (100 ml). Test sample solutions in various concentrations (62.50 to 1000 μg/mL) were also prepared. From each dilution, 1 ml sample solution was taken to which 1 ml solution of DPPH was added. The solution mixture was incubated at 23°C for 30 minutes in the dark and then subjected to a UV-visible spectrophotometer to note the absorbance at 517 nm. The absorbance values of all samples were taken in triplicate. Ascorbic acid served as positive control, while negative control only contained a solution of DPPH having no test samples. The % free radical scavenging potential of our compounds was determined by the given formula.
% free radical scavenging activity = [drawing 2] x100
X is the control absorbance, whereas X1 is the absorbance of the test sample.

[3] = tested on: scopolamine-induced amnesic mice; assay: Elevated Plus Maze (EPM) test in scopolamine-induced amnesic animals; format: in vivo, albino mice; settings: scopolamine 1 mg/kg amnesic mice, i.p., AN-1 10 mg/kg, progesterone 10 mg/kg, galantamine 8 mg/kg
Procedure: (§4) The mice were divided into the following five groups, and each group had six animals. The standard drug and test samples were carefully administered to the mice via the intraperitoneal route.
(§5) Group IV (Progesterone treated group) = Animals treated with 10 mg/kg progesterone and scopolamine 1 mg/kg.
(§6) Group V (Test compound group) = Animals received 10 mg/kg progesterone derivative (AN-1) and 1 mg/kg scopolamine.
The EPM behavioral test was performed to assess the learning abilities and long-term spatial memory of the experimental animals. The EPM apparatus has the appearance of a plus sign which was 50 cm elevated from the ground. The apparatus has two open arms (50 cm long and 10 cm wide), and two closed arms having dimensions of 20, 50, and 10 cm in height, length, and width, respectively. The open and closed arms were joined with a 10 × 10 central square.
After 30 minutes of the intraperitoneal drug administration on the seventh day of treatment, mice of each group were placed over the open arm end of the EPM apparatus in such a way that their faces were away from the midpoint of the apparatus. Transfer latency (TL) is the time a mouse takes to enter the closed arm entirely with all its legs from the open arm of the apparatus. The time of initial transfer latency (ITL) was observed, and then the animals were allowed freely for 1.5 minutes to search the EPM apparatus.
After twenty-four hours of the training period, test trials were conducted to determine the retention of tasks that were learnt during training. Retention transfer latency (RTL) was measured by placing the experimental mice at the open end of the apparatus, ensuring that they faced away from its midpoint. The mouse was allowed to enter the closed arm entirely with all its legs. A decline in TL compared to ITL indicated an improvement in memory.

[4] = tested on: scopolamine-induced amnesic mice; assay: Y-Maze test in scopolamine-induced amnesic animals; format: in vivo, albino mice; settings: scopolamine 1 mg/kg amnesic mice, i.p., AN-1 10 mg/kg, progesterone 10 mg/kg, galantamine 8 mg/kg, disease group 22.27%
Procedure: as §4, §5, §6
To determine the effect of synthesized compounds on short-term learning and memory of experimental mice, a Y-Maze test was used. The Y-Maze apparatus consists of three arms that are fixed at 120° angle from each other and have 30 cm length, 20 cm height, and 8 cm width dimensions. After 30 minutes of giving test compounds intraperitoneally, the mouse was positioned at the arm end in such a way that it faced away from the midpoint of the apparatus and was permitted to search the apparatus for five minutes freely. The arm entry sequence and number by each mouse were recorded for 5 minutes using a digital camera. Alternation is defined as the successive entry into 3 dissimilar arms by a mouse (i.e., CBA, BCA, ABC). When the back paws of a mouse were found inside an arm wholly, the arm entry was considered completed. Seventy percent v/v ethanol was used for cleaning the apparatus and to avoid smell cues. The spontaneous alternation performance (SAP) percentage was calculated using the following formula [37]:
% alternation = [(alternations number) / (total arm entries number – 2)] × 100

[5] = tested on: scopolamine-induced amnesic mice; assay: Open field test (OFT) in scopolamine-induced amnesic animals; format: in vivo, albino mice; settings: i.p., AN-1 10 mg/kg, progesterone 10 mg/kg, galantamine 8 mg/kg
Procedure: as §4, §5, §6
Open field behavioral test was carried out for the assessment of locomotor activities like the number of line crossing. The apparatus was made from plywood having 81×81×28.5 cm dimensions. Sixteen squares (20×20 cm) were made on the base of the apparatus by drawing four horizontal and four vertical lines. […] Furthermore, exploration time spent by mice in central and peripheral areas of the apparatus was also recorded by allowing the mice for 30 minutes to explore the apparatus.

T1 sequence (O42275 24-633): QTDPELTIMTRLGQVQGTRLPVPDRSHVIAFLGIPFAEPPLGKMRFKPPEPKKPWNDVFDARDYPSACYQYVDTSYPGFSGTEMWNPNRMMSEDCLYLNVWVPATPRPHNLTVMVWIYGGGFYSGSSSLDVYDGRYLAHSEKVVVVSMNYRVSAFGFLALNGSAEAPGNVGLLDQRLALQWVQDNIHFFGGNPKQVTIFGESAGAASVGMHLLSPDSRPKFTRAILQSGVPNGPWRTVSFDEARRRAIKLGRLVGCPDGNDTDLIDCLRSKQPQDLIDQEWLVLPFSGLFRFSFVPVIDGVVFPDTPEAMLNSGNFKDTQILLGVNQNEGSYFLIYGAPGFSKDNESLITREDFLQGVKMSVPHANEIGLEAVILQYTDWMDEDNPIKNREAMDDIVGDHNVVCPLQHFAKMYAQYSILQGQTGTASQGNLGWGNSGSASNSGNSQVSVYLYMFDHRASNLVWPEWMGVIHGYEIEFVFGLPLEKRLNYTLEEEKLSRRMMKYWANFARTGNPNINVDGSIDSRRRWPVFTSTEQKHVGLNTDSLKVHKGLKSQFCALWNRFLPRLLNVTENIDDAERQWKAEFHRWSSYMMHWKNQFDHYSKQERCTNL

COc1ccc(C/N=C(/C)[C@H]2CC[C@H]3[C@@H]4CCC5=CC(=O)CC[C@]5(C)[C@H]4CC[C@]23C)cc1 [AN1, (8S,9S,10R,13S,14S)-17-((Z)-1-((4-methoxybenzyl)imino)ethyl)-10,13-dimethyl-1,2,6,7,8,9,10,11,12,13,14,15,16,17-tetradecahydro-3H-cyc-lopenta[a]phenanthren-3-one]
IC50 [1]: 56.5 µM
inhibition at 125 µg/mL ([1]; read-out: % AChE Inhibition): 69.4%
inhibition at 250 µg/mL ([1]; read-out: % AChE Inhibition): 76.3%
inhibition at 500 µg/mL ([1]; read-out: % AChE Inhibition): 83.2%
inhibition at 1000 µg/mL ([1]; read-out: % AChE Inhibition): 88.9 ± 1.2%
IC50 [2]: 43.3 µM
inhibition at 62.5 µg/mL ([2]; read-out: % BChE Inhibition): 61.5%
inhibition at 125 µg/mL ([2]; read-out: % BChE Inhibition): 68.3%
inhibition at 250 µg/mL ([2]; read-out: % BChE Inhibition): 71.9%
inhibition at 500 µg/mL ([2]; read-out: % BChE Inhibition): 80.4%
inhibition at 1000 µg/mL ([2]; read-out: % BChE Inhibition): 86.8 ± 1.24%
IC50 (DPPH antioxidant assay): 57.2 µM
% Inhibition (DPPH free radicals) (DPPH antioxidant assay; 62.5 µg/ml): 56.46 ± 1.12%
% Inhibition (DPPH free radicals) (DPPH antioxidant assay; 125 µg/ml): 67.64 ± 3.04%
% Inhibition (DPPH free radicals) (DPPH antioxidant assay; 250 µg/ml): 70.00 ± 3.95%
% Inhibition (DPPH free radicals) (DPPH antioxidant assay; 500 µg/ml): 76.15 ± 2.31%
% Inhibition (DPPH free radicals) (DPPH antioxidant assay; 1000 µg/ml): 83.37 ± 2.03%
retention transfer latency (RTL) ([3]; 24 h after training, disease group 67 sec): 45.33 s
initial transfer latency (ITL) ([3]; disease group 73 sec): 50.16 s
spontaneous alternation [4]: 42.72 ± 9.41%
spontaneous alternation ([4]; listed as AN-1): 42.72%
number of lines crossed ([5]; 5 min, scopolamine 1 mg/kg amnesic mice, disease group 26.33): 43.66
time spent in the central area ([5]; 30 min exploration, scopolamine 1 mg/kg amnesic mice, disease group 4.66): 10.33 mint
time spent in the peripheral area ([5]; versus scopolamine/disease group): significantly (p<0.01) less time in the peripheral area

Source: paper PMC12645137 (Current Neuropharmacology, 2025)
